# Measured values: ChEMBL document CHEMBL3046703, “Study of mangiferin-receptor affinity by cell membrane chromatography using rat pancreas” (Med Chem Res, 2012)
# Calls of active or inactive are those of the source. The rule behind the calls is not given here.
# Columns and labels:
# Type in all cases: cell membranes
# Rattus norvegicus [1] = species on record: Rattus norvegicus; test: Binding affinity to mangiferin receptor in rat islet cell membrane stationary phase assessed as ligand-membrane complex by infrared spectroscopic analysis
# Rattus norvegicus [2] = species on record: Rattus norvegicus; test: Binding affinity to mangiferin receptor in rat islet cell membrane stationary phase assessed as total active binding sites per islet bed by chromatographic analysis
# [3] = Binding affinity to mangiferin receptor in rat islet cell membrane stationary phase by chromatographic analysis
smiles,measurement,setting,value
O=c1c2cc(O)c(O)cc2oc2cc(O)c([C@@H]3O[C@H](CO)[C@@H](O)[C@H](O)[C@H]3O)c(O)c12 [MANGIFERIN],Activity,Rattus norvegicus [1],Active
same,Activity,Rattus norvegicus [2],22.7 µmol
same,Kd,[3],400 nM
